For one assay, the system named is rats. Briefly: formalin test in rats. The class given is in vivo. The source says:
The analgesic effects of the extracts of this invention were studied using the formalin test (Dubuisson, D., Dennis, S. G., “The formalin test: a quantitative study of the analgesic effects of morphine, meperidine, and brainstem stimulation in rats and cats,” Pain, 1977, 4, pp. 161-164), a commonly used animal model to study nociceptive processes and analgesic drug effects.
Male Holtzman rats weighing 150-175 g were obtained from Harlan Spraque Dawley (Indianapolis, Ind.) and housed under a 12:12 h light/dark cycle in individual stainless steel cages in a temperature and humidity controlled vivarium. Food and water were available ad libitum. In session one, the animals were allowed to acclimate to the colony room for two days and handled for an additional two days prior to conducting the experiment in order to reduce experimenter-related stress. In session two, animals were allowed to acclimate to the colony room for four days, handled for three days, and acclimated to the apparatus for two days prior to conducting the experiment in order to reduce experimenter-related stress. In both sessions, the animals were food-deprived for 12 h before administering the test articles.
A Plexiglas viewing chamber (30×30×30 cm) was used for data collection.
Naproxen was used as a reference. Samples were tested at a concentration of 100 mg/kg except Formulation J which was tested at 200 mg/kg.
In session one, 10 minutes before the formalin observation period, the formulations were delivered via gavage in a volume of 0.5 ml to obtain a minimum response interval of 30 min between the injection time and the second phase of the formalin response. In session two, formulations were delivered via gavage of 1 ml. Each animal received two formulation dosings before the tests: 70 and 10 minutes before the beginning of the formalin observation period in order to obtain a 90 and 30 min injection intervals before the second phase of the formalin response.
Immediately after administration of 0.05 ml of 2.5% formalin into the hindpaw, rats were placed into 30×30×30 cm Plexiglas observation chamber. The observation session lasted 50 min. A dependent measure was the amount of time in which the injected paw was 1) in a lift position and 2) licked, bitten or shaken across ten 5-min blocks. A composite pain score as a function of ten 5-min blocks was calculated according to the procedures of Watson et al. (Watson, G. S., Sufka, K. J., Coderre, T. J., “Optimal scoring strategies and weights for the formalin test in rats,” Pain, 1997, 70, pp. 53-58). Sample sizes were n=5-6 rats per group. […]
Data were screened for homogeneity of variance and analyzed using repeated measures analysis of variance (ANOVA) and Fisher's LSD procedures.

The test system of another assay is chicks. The conditions noted are these: previous research with this chick model (Watson et al., 1996, 1999); cited from earlier work.

Consider 5 compounds from patent US20030215531A1, “Compositions and methods of use for extracts of Rutaceae plants” (priority 2000, published 2003).

Each structure is given as a SMILES string. Entries after “also recorded” stand apart in the source; their conditions may differ. Where a name gives a salt, the structure may show the parent alone.

For `COc1ccc2cc3[n+](cc2c1OC)CCc1cc2c(cc1-3)OCO2` [Formulation K, berberine HCl], the “effect on formalin-induced pain behaviors (CPS), in words” value with rats (session 1, 100 mg/kg by gavage 10 min before observation, HCl, 100 mg/kg) is reported as “attenuated pain-related behaviors during the second phase; also recorded: reduced pain during the fourth to the tenth time block”. Take `COc1ccc2cc([C@H](C)C(=O)O)ccc2c1` [Naproxen]: the “effect on formalin-induced pain behaviors (CPS), in words” value in the assay on rats (session 1, 100 mg/kg by gavage 10 min before observation, 100 mg/kg) is reported as “did not affect pain behaviors”; with rats (session 1, 100 mg/kg by gavage 10 min before observation, listed as naproxen, 100 mg/kg) it was “had no effect on pain”; in the assay on rats (session 2, two gavage dosings 70 and 10 min before observation, Naproxen 100 mg, Formulation J 200 mg/kg, b186 prints 100 mg/kg), “attenuated the second phase of the formalin response”. On to `Cc1nnc2n1-c1ccc(Cl)cc1C(c1ccccc1)=NC2` [alprazolam], for which the “ED50 in attenuating separation-induced DVoc” value (from here on “ED50”) with chicks is on record as 0.19 mg/kg. Consider `CNC1=Nc2ccc(Cl)cc2C(c2ccccc2)=[N+]([O-])C1` [chlorodiazepoxide, chlordiazepoxide], for which, in the assay on chicks, the “ED50” value was 3.75 mg/kg. For the compound `O=C1Nc2ccc(Cl)cc2C(c2ccccc2Cl)=NC1O` (stereo not shown) [lorazepam], the “ED50” value in the assay with chicks was 0.34 mg/kg.
